Our source for the IC50, inhibition and inhibition in vivo values is patent US9624215B2, “Amine derivative or salt thereof” (TOYAMA CHEMICAL CO., LTD., priority 2012, dated 2017).

Experiment [1] relates to normal human neonatal foreskin epidermal keratinocytes (NHEK-F). As to the kind of experiment: Cell proliferation inhibition test. Format: cell-based. The following applies: Keratinocyte, 72 h, NHEK-F cells, three days incubation, ATPlite or CellTiterGlo, read-out: IC50 (concentration of the compound at which the cell count is reduced by 50%). A digest of the protocol: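 NHEK-F keratinocytes, 2×10^3 per well in Humedia-EG2, plated overnight, then exposed to compound for three days. Cell count by ATPlite or CellTiterGlo luminescence; inhibition = 100 − (treated/untreated count)×100, IC50 as 50% reduction concentration.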

Experiment [2] concerns TNFα production in LPS-stimulated Raw264.7 cells. The experiment in a line: TNFα production inhibition test. The experiment is classed as cell-based. The conditions noted are these: Mus musculus, test compound 1 μmol/L, LPS 1 μg/mL, 16 hours, ELISA, read-out: Inhibition rate of TNFα production. On the procedure:
7×10^4 mouse macrophage-derived cell line Raw264.7 cells were suspended in 100 μL of RPMI1640 medium containing 10% fetal bovine serum, plated in a 96-well plate and incubated overnight. The culture supernatant was removed and the test compound diluted in RPMI1640 medium containing 1% fetal bovine serum (final concentration: 1 μmol/L) was added. One hour after the addition, LPS (B4:0111) (Sigma-Aldrich, L2630) was added to a final concentration of 1 μg/mL. 16 hours after the stimulation, the culture supernatant was collected and the amount of TNFα produced in the culture supernatant was determined using ELISA kit (R&D Systems, MTA00B).
The inhibition rate was calculated from the following formula. Inhibition rate (%)=100−(amount of TNFα produced in the presence of test compound/amount of TNFα produced in the absence of test compound)×100
Background: In an ELISA, binding on a coated surface is turned into a signal by an enzyme label.

Experiment [3] relates to TPA-induced ear edema and acanthosis in Balb/c mice. As to the kind of experiment: Mouse TPA-induced ear-swelling model. The experiment is classed as in vivo. The following applies: topical, 240 h, 1% w/v solution, 20 μL applied to ear once a day from day 0 to day 9, female Balb/c mice, read-out: Inhibition rate of change in ear thickness on day 10. The method in brief: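 Female Balb/c mice, 7 weeks old; 20 ng/mL TPA in 5% DMSO/acetone applied to outer ear on days 0, 2, 4, 7, 9. Test compound at 1% w/v topically once daily days 0-9, vehicle control. Inhibition rate from day 10 minus day 0 ear-thickness change versus control.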

In the case of `O=C(O)c1nc(C2CC2)cnc1Nc1ccc2c(ccn2Cc2ccccc2)c1` [Example 71, 3-((1-benzyl-1H-indol-5-yl)amino)-6-cyclopropylpyrazine-2-carboxylic acid], in experiment [1], the IC50 was at most 10 nM. Also, in experiment [2], the inhibition (commonly the share of the control response that was lost under treatment) at 1 µM was at least 50%. Besides, the inhibition in vivo at 1 % strength in experiment [3] is at least 20%.
Turning to `O=C(O)c1cc(Cl)ccc1Nc1cccc2c1ccn2-c1ccccc1` [Example 275, 5-chloro-2-((1-phenyl-1H-indol-4-yl)amino)benzoic acid], the IC50 in experiment [1] is at most 10 nM. Also, the inhibition at 1 µM in experiment [2] was at least 50%. Further, the inhibition in vivo at 1 % strength in experiment [3] is at least 20%.
The corresponding values for `O=C(O)c1cc(Cl)cnc1Nc1ccc2c(ccn2Cc2ccccc2)c1` [Example 90, 2-((1-benzyl-1H-indol-5-yl)amino)-5-chloronicotinic acid] are 10 to 100 nM, at least 50% and at least 20%.
Regarding `O=C(O)c1cc(C2CC2)ccc1Nc1ccc2c(ccn2Cc2ccccc2)c1` [Example 94, 2-((1-benzyl-1H-indol-5-yl)amino)-5-cyclopropylbenzoic acid], the IC50 in experiment [1] was at most 10 nM. The inhibition at 1 µM in experiment [2] is at least 50%. In addition, the inhibition in vivo at 1 % strength in experiment [3] is at least 20%.
The matching figures for `O=C(O)c1cc(C2CC2)cnc1Nc1ccc2c(ccn2-c2ccccc2)c1` [Example 39, 5-cyclopropyl-2-((1-phenyl-1H-indol-5-yl)amino)nicotinic acid]: at most 10 nM, at least 50% and at least 20%.
On to `Cn1c(=O)n(-c2ccccc2)c2ccc(Nc3ccc(C4CC4)cc3C(=O)O)cc21` [Example 78, 5-cyclopropyl-2-((3-methyl-2-oxo-1-phenyl-2,3-dihydro-1H-benzo[d]imidazol-5-yl)amino)benzoic acid], for which the IC50 in experiment [1] lay within 10 to 100 nM. Moreover, the inhibition at 1 µM in experiment [2] was at least 50%.
On to `O=C(O)c1cc(Cl)ccc1Nc1ccc2c(ccn2CC2CC2)c1` [Example 96, 5-chloro-2-((1-(cyclopropylmethyl)-1H-indol-5-yl)amino)benzoic acid], for which, in experiment [1], the IC50 is 10 to 100 nM. For the same compound, the inhibition at 1 µM in experiment [2] was at least 50%.
Consider `Cc1ccc(-n2ccc3cc(Nc4ccc(C5CC5)cc4C(=O)O)ccc32)nn1` [Example 102, 5-cyclopropyl-2-((1-(6-methylpyridazin-3-yl)-1H-indol-5-yl)amino)benzoic acid], for which the IC50 in experiment [1] lay in the range of 10 to 100 nM. For the same compound, the inhibition at 1 µM in experiment [2] was at least 50%.
The matching figures for `O=C(O)c1cc(Cl)ccc1Nc1cnc2c(ccn2Cc2ccccc2)c1` [Example 11, 2-((1-benzyl-1H-pyrrolo(2,3-b)pyridin-5-yl)amino)-5-chlorobenzoic acid]: 10 to 100 nM and at least 50%.
As for `O=C(O)c1cc(C2CC2)ccc1Nc1ccc2c(ccn2Cc2ccc(N3CCCCC3)cc2)c1` [Example 194, 5-cyclopropyl-2-((1-(4-(piperidin-1-yl)benzyl)-1H-indol-5-yl)amino)benzoic acid], the IC50 in experiment [1] is at most 10 nM. Moreover, the inhibition at 1 µM in experiment [2] was at least 50%.
With `O=C(O)c1cc(C2CC2)cnc1Nc1ccc2c(ccn2Cc2ccccc2)c1` [Example 37, 2-((1-benzyl-1H-indol-5-yl)amino)-5-cyclopropylnicotinic acid], in experiment [1], the IC50 was at most 10 nM. Further, the inhibition at 1 µM in experiment [2] was at least 50%. Also, the inhibition in vivo at 1 % strength in experiment [3] was at least 20%.
For `O=C(O)c1cc(Cl)ccc1Nc1ccc2c(ccn2-c2ccccc2)c1` [Example 269, 5-chloro-2-((1-phenyl-1H-indol-5-yl)amino)benzoic acid], the IC50 in experiment [1] was at most 10 nM. In addition, the inhibition at 1 µM in experiment [2] is at least 50%.
Turning to `O=C(O)c1cc(C2CC2)ccc1Nc1ccc2c(cnn2Cc2ccccc2)c1` [Example 29, 2-((1-benzyl-1H-indazol-5-yl)amino)-5-cyclopropylbenzoic acid], the IC50 in experiment [1] is at most 10 nM. Also, the inhibition at 1 µM in experiment [2] was at least 50%. Besides, the inhibition in vivo at 1 % strength in experiment [3] is at least 20%.
Turning to `CCCCn1ccc2cc(Nc3ccc(Cl)cc3C(=O)O)ccc21` [Example 255, 2-((1-butyl-1H-indol-5-yl)amino)-5-chlorobenzoic acid], the IC50 in experiment [1] was in the range of 10 to 100 nM. Further, the inhibition at 1 µM in experiment [2] is at least 50%.
For `COCCOc1cccc(Cn2ccc3cc(Nc4ccc(Cl)cc4C(=O)O)ccc32)c1` [Example 298, 5-chloro-2-((1-(3-(2-methoxyethoxyl)benzyl)-1H-indol-5-yl)amino)benzoic acid], the IC50 in experiment [1] was at most 10 nM. Moreover, the inhibition at 1 µM in experiment [2] was at least 50%.
Turning to `O=C(O)c1cc(C2CC2)cnc1Nc1ccc2c(c1)sc(=O)n2Cc1ccccc1` [Example 75, 2-((3-benzyl-2-oxo-2,3-dihydrobenzo[d]thiazol-6-yl)amino)-5-cyclopropylnicotinic acid], the IC50 in experiment [1] is at most 10 nM. In addition, in experiment [2], the inhibition at 1 µM was at least 50%. Moreover, in experiment [3], the inhibition in vivo at 1 % strength was at least 20%.
For `O=C(O)c1cc(C2CC2)ccc1Nc1ccc2c(ccn2-c2cccnc2)c1` [Example 339, 5-cyclopropyl-2-((1-(pyridin-3-yl)-1H-indol-5-yl)amino)benzoic acid], the IC50 in experiment [1] was at most 10 nM. In experiment [2], the inhibition at 1 µM is at least 50%.
Consider `O=C(O)c1cc(C2CC2)ccc1Nc1ccc2c(ccn2Cc2cccc(OCC(F)(F)F)c2)c1` [Example 35, 5-cyclopropyl-2-((1-(3-(2,2,2-trifluoroethoxyl)benzyl)-1H-indol-5-yl)amino)benzoic acid], for which the IC50 in experiment [1] is at most 10 nM. Moreover, the inhibition at 1 µM in experiment [2] is at least 50%. Further, the inhibition in vivo at 1 % strength in experiment [3] is at least 20%.
On to `O=C(O)c1cc(C(F)(F)F)ccc1Nc1ccc2c(ccn2Cc2ccccc2)c1` [Example 32, 2-((1-benzyl-1H-indol-5-yl)amino)-5-(trifluoromethyl)benzoic acid], for which the IC50 in experiment [1] was at most 10 nM. Besides, the inhibition at 1 µM in experiment [2] is at least 50%. Further, the inhibition in vivo at 1 % strength in experiment [3] was at least 20%.
